Experimental data from paper PMC8699473, “An Easily Expandable Multi-Drug LC-MS Assay for the Simultaneous Quantification of 57 Oral Antitumor Drugs in Human Plasma” (Cancers, 2021).

Test: Long-term stability in spiked pooled human plasma

Compound | Long-term stability, 1 month, -20°C Accuracy [%] (validation standard 2xLLOV) | Long-term stability, 1 month, -80°C Accuracy [%] (validation standard 2xLLOV) | Long-term stability, 2 month, -20°C Accuracy [%] (validation standard 2xLLOV) | Long-term stability, 2 month, -80°C Accuracy [%] (validation standard 2xLLOV) | Long-term stability, 3 month, -20°C Accuracy [%] (validation standard 2xLLOV) | Long-term stability, 3 month, -80°C Accuracy [%] (validation standard 2xLLOV) | Long-term stability, 6 weeks, 4°C, without daylight Accuracy [%] (validation standard 2xLLOV) | Long-term stability, 1 month, -20°C Accuracy [%] (validation standard LLOV) | Long-term stability, 1 month, -80°C Accuracy [%] (validation standard LLOV) | Long-term stability, 1 month, -80°C Accuracy [%] (validation standard MOV) | Long-term stability, 2 month, -20°C Accuracy [%] (validation standard MOV) | Long-term stability, 2 month, -80°C Accuracy [%] (validation standard MOV) | Long-term stability, 3 month, -80°C Accuracy [%] (validation standard MOV) | Long-term stability, 6 weeks, 4°C, without daylight Accuracy [%] (validation standard MOV) | Long-term stability, 1 month, -20°C Accuracy [%] (validation standard ULOV) | Long-term stability, 1 month, -80°C Accuracy [%] (validation standard ULOV) | Long-term stability, 2 month, -20°C Accuracy [%] (validation standard ULOV) | Long-term stability, 2 month, -80°C Accuracy [%] (validation standard ULOV) | Long-term stability, 3 month, -80°C Accuracy [%] (validation standard ULOV) | Long-term stability, 6 weeks, 4°C, without daylight Accuracy [%] (validation standard ULOV) | other results
Cc1ccc(Nc2nccc(N(C)c3ccc4c(C)n(C)nc4c3)n2)cc1S(N)(=O)=O [Pazopanib] | 99.1 | 95.8 | 100.4 | 103.8 | 106.9 | 104.8 | 96.5 | 102.3 | 97.4 | 95.8 | 98.8 | 98.1 | 103.3 | 109.7 | 97.3 | 93.0 | 98.8 | 98.3 | 100.0 | 98.9 | Long-term stability, 2 month, -20°C Accuracy [%] (validation standard LLOV): 106.7%; Long-term stability, 2 month, -80°C Accuracy [%] (validation standard LLOV): 108.3%; Long-term stability, 3 month, -20°C Accuracy [%] (validation standard LLOV): 103.9%; Long-term stability, 3 month, -80°C Accuracy [%] (validation standard LLOV): 103.6%; Long-term stability, 6 weeks, 4°C, without daylight Accuracy [%] (validation standard LLOV): 99.0%; Long-term stability, 1 month, -20°C Accuracy [%] (validation standard MOV): 96.3%; Long-term stability, 3 month, -20°C Accuracy [%] (validation standard MOV): 103.3%; Long-term stability, 3 month, -20°C Accuracy [%] (validation standard ULOV): 98.1%
Nc1cccc2c1C(=O)N(C1CCC(=O)NC1=O)C2=O (centres unmarked) [Pomalidomide] | 90.4 | 90.2 | 107.3 | 96.6 | 95.5 | 97.4 | 19.0 | 91.3 | 85.8 | 88.3 | 97.2 | 99.4 | 94.9 | 15.7 | 94.6 | 89.1 | 94.1 | 99.0 | 95.1 | 11.3 | Long-term stability, 2 month, -20°C Accuracy [%] (validation standard LLOV): 95.9%; Long-term stability, 2 month, -80°C Accuracy [%] (validation standard LLOV): 99.9%; Long-term stability, 3 month, -20°C Accuracy [%] (validation standard LLOV): 97.6%; Long-term stability, 3 month, -80°C Accuracy [%] (validation standard LLOV): 97.4%; Long-term stability, 6 weeks, 4°C, without daylight Accuracy [%] (validation standard LLOV): 30.1%; Long-term stability, 1 month, -20°C Accuracy [%] (validation standard MOV): 90.6%; Long-term stability, 3 month, -20°C Accuracy [%] (validation standard MOV): 90.0%; Long-term stability, 3 month, -20°C Accuracy [%] (validation standard ULOV): 87.6%
Cc1ccc(C(=O)Nc2ccc(CN3CCN(C)CC3)c(C(F)(F)F)c2)cc1C#Cc1cnc2cccnn12 [Ponatinib] | 99.2 | 94.7 | 95.8 | 97.8 | 93.4 | 98.9 | 91.7 |  |  | 93.7 | 99.2 | 101.1 | 95.3 | 97.9 | 95.0 | 90.8 | 97.0 | 100.1 | 93.5 | 89.4 | Long-term stability, 1 month, -20°C Accuracy [%] (validation standard MOV): 92.3%; Long-term stability, 3 month, -20°C Accuracy [%] (validation standard MOV): 95.0%; Long-term stability, 3 month, -20°C Accuracy [%] (validation standard ULOV): 93.8%
CN(C)C(=O)c1cc2cnc(Nc3ccc(N4CCNCC4)cn3)nc2n1C1CCCC1 [Ribociclib] |  | 98.5 | 109.0 | 112.4 |  | 106.4 | 96.4 | 88.0 | 83.5 | 101.3 | 108.6 | 108.1 | 104.3 | 107.4 | 91.9 | 90.7 | 98.7 | 98.8 | 92.7 | 96.3 | Long-term stability, 2 month, -20°C Accuracy [%] (validation standard LLOV): 92.7%; Long-term stability, 2 month, -80°C Accuracy [%] (validation standard LLOV): 94.7%; Long-term stability, 3 month, -80°C Accuracy [%] (validation standard LLOV): 90.7%; Long-term stability, 6 weeks, 4°C, without daylight Accuracy [%] (validation standard LLOV): 76.6%
CNCc1ccc(-c2[nH]c3cc(F)cc4c3c2CCNC4=O)cc1 [Rucaparib] | 95.4 | 89.7 | 100.7 | 99.7 | 95.9 | 94.7 | 93.1 | 104.7 | 102.1 | 95.5 | 104.6 | 102.1 | 97.2 | 103.5 | 99.8 | 94.8 | 104.3 | 102.7 | 98.3 | 100.2 | Long-term stability, 2 month, -20°C Accuracy [%] (validation standard LLOV): 115.1%; Long-term stability, 2 month, -80°C Accuracy [%] (validation standard LLOV): 112.2%; Long-term stability, 3 month, -20°C Accuracy [%] (validation standard LLOV): 109.6%; Long-term stability, 3 month, -80°C Accuracy [%] (validation standard LLOV): 108.0%; Long-term stability, 6 weeks, 4°C, without daylight Accuracy [%] (validation standard LLOV): 104.4%; Long-term stability, 1 month, -20°C Accuracy [%] (validation standard MOV): 98.5%; Long-term stability, 3 month, -20°C Accuracy [%] (validation standard MOV): 101.6%; Long-term stability, 3 month, -20°C Accuracy [%] (validation standard ULOV): 100.6%
N#CC[C@H](C1CCCC1)n1cc(-c2ncnc3[nH]ccc23)cn1 [Ruxolitinib] | 101.5 | 93.0 | 97.7 | 100.0 | 97.5 | 99.4 | 93.8 | 95.6 | 94.6 | 94.2 | 97.7 | 96.8 | 94.6 | 97.6 | 95.3 | 91.6 | 95.3 | 95.8 | 94.5 | 96.6 | Long-term stability, 2 month, -20°C Accuracy [%] (validation standard LLOV): 98.6%; Long-term stability, 2 month, -80°C Accuracy [%] (validation standard LLOV): 99.8%; Long-term stability, 3 month, -20°C Accuracy [%] (validation standard LLOV): 101.8%; Long-term stability, 3 month, -80°C Accuracy [%] (validation standard LLOV): 96.5%; Long-term stability, 6 weeks, 4°C, without daylight Accuracy [%] (validation standard LLOV): 97.9%; Long-term stability, 1 month, -20°C Accuracy [%] (validation standard MOV): 95.8%; Long-term stability, 3 month, -20°C Accuracy [%] (validation standard MOV): 97.0%; Long-term stability, 3 month, -20°C Accuracy [%] (validation standard ULOV): 95.4%
